Measurements reported in PubChem BioAssay (NCI).
Values joined by “and” are separate entries in the source; they are usually repeats but may differ in a detail not shown here. Equal values may be shown once.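 These data come from cells grown in 96-well plates and exposed to compound for 48 hours at five concentrations. Here, GI50 denotes the concentration required for 50% inhibition of growth. At the TGI there is no net growth.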

What was measured:
Assay in all cases: NCI-60 cell line screen, 48 h
NCI-H226 lung = test system: NCI-H226 lung
SK-MEL-28 melanoma = test system: SK-MEL-28 melanoma
HCC-2998 colon = test system: HCC-2998 colon
M14 melanoma = test system: M14 melanoma
SNB-75 CNS = test system: SNB-75 CNS
COLO 205 colon = test system: COLO 205 colon
PC-3 prostate = test system: PC-3 prostate
HS 578T breast = test system: HS 578T breast
T-47D breast = test system: T-47D breast
NCI/ADR-RES ovarian = test system: NCI/ADR-RES ovarian

Structure (SMILES)	TGI (NCI-H226 lung)	TGI (SK-MEL-28 melanoma)	TGI (HCC-2998 colon)	TGI (M14 melanoma)	TGI (SNB-75 CNS)	TGI (COLO 205 colon) [µM]	GI50 (NCI-H226 lung)	GI50 (SK-MEL-28 melanoma)	GI50 (PC-3 prostate) [µM]	TGI (PC-3 prostate) [µM]	GI50 (HCC-2998 colon)	GI50 (HS 578T breast) [µM]	TGI (HS 578T breast) [µM]	GI50 (M14 melanoma)	GI50 (T-47D breast) [µM]	TGI (T-47D breast) [µM]	GI50 (SNB-75 CNS)	GI50 (COLO 205 colon) [µM]	GI50 (NCI/ADR-RES ovarian) [µM]	TGI (NCI/ADR-RES ovarian) [µM]
C[N+](C)(C)CC(=O)N/N=C(/C=C/c1ccccc1)CC1OC(=O)c2ccccc21 (stereo not given)	> 100 µM	> 100 µM	> 100 µM	> 100 µM	> 100 µM	> 100	–	–	–	–	–	–	–	–	–	–	–	–	–	–
O=C(CCCCCCc1nc2ccc(Br)cc2[nH]1)NO	7.37 µM	2.75 µM	3.08 µM	7.51 µM	> 100 µM	5.07	1.65 µM	0.703 µM	0.796	> 100	0.777 µM	0.331	3.21	0.34 µM	0.23	> 100	0.419 µM	0.975	0.216	1.87
COc1ccccc1/C=C1\COc2ccc(O)c(O)c2C1=O	5.08 µM	4.44 µM	3.25 µM	8.38 µM	–	8.98	1.9 µM	1.91 µM	1.43	11.3	1.76 µM	3.6	> 100	2.19 µM	2.47	> 100	–	3.14	1.88	6.64
Clc1ccc(Cl)c(N/N=C\c2c[nH]c3ccccc23)c1	34.3 µM	–	29.9 µM	25.4 µM	–	30.4	7.99 µM	–	0.915	9.48	13.6 µM	3.89	23.1	12.8 µM	–	–	–	14	15.6	34.8
COc1ccc(CN2CCc3c(Cl)nc(N)nc3C2=O)c(OC)c1	41.7 µM	29.4 µM	31.6 µM	28.1 µM	32.7 µM	30.6	18.3 µM	15.7 µM	–	–	17.3 µM	19.2	50.5	13.8 µM	11	39.8	14.4 µM	16.3	27.2	87
CN(C)CCCn1cnc2ncccc2c1=O	> 100 µM	> 100 µM	> 100 µM	> 100 µM	> 100 µM	> 100	–	–	–	–	–	–	–	–	–	–	–	–	–	–
O=C(Nc1ccc(Cl)cc1)NS(=O)(=O)c1ccc2c(c1)CCC2	> 77.8 µM and 52.5 µg/mL	> 100 µM and 39.3 µg/mL	> 77.6 µM and 36.8 µg/mL	97.5 µM and 45.1 µg/mL	> 100 µM and 64.7 µg/mL	> 60.8	24.1 µg/mL	20.1 µg/mL	–	47.3	17.3 µg/mL	–	13.1	20.2 µg/mL	–	74.6	28.1 µg/mL	–	–	–
CCOP1(=O)OCC2OC(n3cnc4c(N)ncnc43)C(O)C2O1 (stereo not given)	> 100 µM	> 100 µM	–	> 100 µM	> 100 µM	> 100	–	–	–	> 100	–	–	> 100	–	–	> 100	–	–	–	> 100
CCc1ccc(Cc2ccc(CC)c(NC(=O)C(=O)Cc3nc4ccccc4nc3C)c2CC)c(CC)c1NC(=O)C(=O)Cc1nc2ccccc2nc1C	–	> 100 µM	> 100 µM	> 100 µM	44.4 µM	> 100	–	–	–	–	–	–	–	–	–	–	–	–	–	–
Cc1nc2c(cnn2-c2ccnc3c(C(F)(F)F)cccc23)c(=O)o1	> 100 µM	> 100 µM	> 100 µM	–	> 100 µM	> 100	> 100 µM	> 100 µM	> 100	> 100	> 100 µM	> 100	> 100	–	> 100	> 100	> 100 µM	> 100	> 100	> 100
COc1ccc(NC(=O)c2ccc(NC3=C(Cl)C(=O)N(Cc4ccccc4)C3=O)cc2)cc1	35.9 µM	31.6 µM	31.1 µM	28.6 µM	34.6 µM	> 100	14.5 µM	10.1 µM	6.74	19.9	15.6 µM	15	62.9	9.42 µM	9.79	77.5	12.9 µM	10.9	11.9	38.7
COC1CC(OC2OC(CO)C(O)C(O)C2O)/C(=C\C#N)C(O)C1OC (stereo not given)	> 100 µM	> 100 µM	> 100 µM	> 100 µM	–	> 100	–	–	–	> 100	–	–	> 100	–	–	> 100	–	–	–	> 100
CCCCNC(=S)Nn1c(-c2ccccc2)nc2ccccc2c1=O	> 100 µM	> 100 µM	–	> 100 µM	> 100 µM	> 100	–	–	–	–	–	–	–	–	–	–	–	–	–	–
COc1c2occc2c(OC)c2c(=O)c(S(=O)(=O)NC(=O)Nc3ccc(Cl)cc3)coc12	> 10 µM	> 10 µM	> 10 µM	> 10 µM	–	> 10	–	–	–	> 10	–	–	> 10	–	–	> 10	–	–	–	> 10
O=c1[nH]nc(-c2ccccc2)c(-c2ccccc2)c1-n1nc(-c2ccccc2)c2ccccc2c1=O	> 100 µM	> 100 µM	> 100 µM	> 100 µM	> 100 µM	> 100	–	–	–	–	–	–	–	–	–	–	–	–	–	–
CCC12C=CCN3CC[C@]4(C(=C(C(=O)OC)[C@@H]1Nc1ncnc5c1ncn5C1OC(COC(C)=O)C(OC(C)=O)C1OC(C)=O)Nc1ccccc14)C32 (stereo not given in full)	5.22 µM	10.8 µM	4.56 µM	7.03 µM	7.03 µM	3.48	–	–	–	–	–	–	–	–	–	–	–	–	–	–
COC(=O)C1=Cc2cc3c(cc2[C@H](c2ccc4c(c2)OCO4)C1C(=O)OC)OCO3 (stereo not given in full)	> 100 µM	> 100 µM	> 100 µM	> 100 µM	> 100 µM	> 100	–	–	–	–	–	–	–	–	–	–	–	–	–	–
CC/C(=C(\c1ccccc1)c1ccc(OCCN(C)C)cc1)c1ccccc1	–	–	–	–	–	–	–	1.6 µM	2.47	–	0.878 µM	–	–	1.02 µM	0.805	–	–	0.892	2.86	–
COc1ccc(C2SC(N)=Nc3c2c(C)nn3C(=O)c2ccncc2)cc1 (stereo not given)	> 100 µM	> 100 µM	–	> 100 µM	> 100 µM	> 100	–	–	–	> 100	–	–	> 100	–	–	> 100	–	–	–	> 100
